Where a name gives a salt, the structure may show the parent alone.
What was measured:
Rat FAAH-1 = target: T1, Rat FAAH-1 (Rattus norvegicus, UniProt P97612); assay: Rat FAAH-1 assay (Assay Method 2), 3H-anandamide hydrolysis in cell homogenate; assay type: biochemical
T1 construct: expressed in transfected cells
T1 sequence (P97612 1-579): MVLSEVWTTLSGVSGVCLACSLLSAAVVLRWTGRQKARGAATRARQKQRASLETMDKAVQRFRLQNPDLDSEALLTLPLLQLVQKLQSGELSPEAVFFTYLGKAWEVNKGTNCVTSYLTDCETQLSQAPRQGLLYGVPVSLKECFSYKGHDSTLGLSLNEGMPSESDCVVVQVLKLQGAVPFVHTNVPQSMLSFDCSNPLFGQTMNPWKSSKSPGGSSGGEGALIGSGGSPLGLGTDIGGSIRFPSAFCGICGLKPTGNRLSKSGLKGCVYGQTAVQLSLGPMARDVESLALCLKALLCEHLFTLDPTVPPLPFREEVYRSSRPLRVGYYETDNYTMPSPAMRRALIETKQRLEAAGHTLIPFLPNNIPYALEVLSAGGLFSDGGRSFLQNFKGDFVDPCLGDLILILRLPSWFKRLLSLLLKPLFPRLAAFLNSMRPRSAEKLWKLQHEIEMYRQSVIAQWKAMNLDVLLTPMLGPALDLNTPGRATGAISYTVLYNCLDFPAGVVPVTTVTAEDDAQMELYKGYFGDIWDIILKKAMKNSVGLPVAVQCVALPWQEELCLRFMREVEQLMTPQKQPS
Method: A. Transfection of Cells with Rat FAAH-1
(§1) A 10-cm tissue culture dish with a confluent monolayer of SK-N-MC cells was split 2 days (d) prior to transfection. Using sterile technique, the media was removed and the cells were detached from the dish by the addition of trypsin. One fifth of the cells were then placed onto a new 10-cm dish. Cells were grown in a 37° C. incubator with 5% CO2 in Minimal Essential Media Eagle with 10% Fetal Bovine Serum. After 2 d, cells were approximately 80% confluent. These cells were removed from the dish with trypsin and pelleted in a clinical centrifuge. The pellet was re-suspended in 400 μL complete media and transferred to an electroporation cuvette with a 0.4 cm gap between the electrodes. Supercoiled rat FAAH cDNA (1 μg) was added to the cells and mixed. The voltage for the electroporation was set at 0.25 kV, and the capacitance was set at 960 μF. After electroporation, the cells were diluted into complete media (10 mL) and plated onto four 10-cm dishes. Because of the variability in the efficiency of electroporation, four different concentrations of cells were plated. The ratios used were 1:20, 1:10, and 1:5, with the remainder of the cells being added to the fourth dish. The cells were allowed to recover for 24 h before adding the selection media (complete media with 600 μg/mL G418). After 10 d, dishes were analyzed for surviving colonies of cells. Dishes with well-isolated colonies were used. Cells from individual colonies were isolated and tested.
(§2) The assay mixture consisted of 50 μL of the cell homogenate, 10 μL of the test compound, and 40 μL of anandamide [1-^3H-ethanolamine] (^3H-AEA, Perkin-Elmer, 10.3 Ci/mmol), which was added last, for a final tracer concentration of 80 nM. The reaction mixture was incubated at rt for 1 h. During the incubation, 96-well Multiscreen filter plates (catalog number MAFCNOB50; Millipore, Bedford, Mass., USA) were loaded with 25 μL of activated charcoal (Multiscreen column loader, catalog number MACL09625, Millipore) and washed once with 100 μL of MeOH. Also during the incubation, 96-well DYNEX MicroLite plates (catalog number NL510410) were loaded with 100 μL of MicroScint40 (catalog number 6013641, Packard Bioscience, Meriden, Conn., USA). After the 1 h incubation, 60 μL of the reaction mixture were transferred to the charcoal plates, which were then assembled on top of the DYNEX plates using Centrifuge Alignment Frames (catalog number MACF09604, Millipore). The unbound labeled ethanolamine was centrifuged through to the bottom plate (5 min at 2000 rpm), which was preloaded with the scintillant, as described above. The plates were sealed and left at rt for 1 h before counting on a Hewlett Packard TopCount.
(§3) Where activity is shown as greater than (>) a particular value, the value is the solubility limit of the compound in the assay medium or the highest concentration tested in the assay.

FAAH = target: T2, FAAH (Homo sapiens, UniProt O00519); assay: Human FAAH assay (Assay Method 1), 3H-anandamide hydrolysis in cell homogenate; assay type: biochemical; parameters: expressed in transfected cells; alternatively T84 frozen cell pellets (endogenous FAAH)
T2 sequence (O00519 1-579): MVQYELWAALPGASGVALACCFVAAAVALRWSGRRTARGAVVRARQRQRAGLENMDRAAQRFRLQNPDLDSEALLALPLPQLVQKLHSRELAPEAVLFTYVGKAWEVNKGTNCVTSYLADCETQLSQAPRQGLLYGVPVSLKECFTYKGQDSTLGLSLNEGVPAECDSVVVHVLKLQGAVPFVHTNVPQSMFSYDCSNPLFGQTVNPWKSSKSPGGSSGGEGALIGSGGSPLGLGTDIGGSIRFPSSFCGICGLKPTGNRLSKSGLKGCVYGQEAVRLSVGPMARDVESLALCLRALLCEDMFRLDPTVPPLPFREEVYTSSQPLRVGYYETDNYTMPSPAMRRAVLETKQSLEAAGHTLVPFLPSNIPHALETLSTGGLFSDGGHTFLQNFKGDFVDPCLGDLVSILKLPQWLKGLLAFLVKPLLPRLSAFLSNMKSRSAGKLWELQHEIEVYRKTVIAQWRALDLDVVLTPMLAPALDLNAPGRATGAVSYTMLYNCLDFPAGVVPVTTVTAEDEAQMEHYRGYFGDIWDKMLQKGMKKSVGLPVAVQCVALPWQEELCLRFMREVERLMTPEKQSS
Method: A. Transfection of Cells with Human FAAH
as §1, with “Supercoiled human” for “Supercoiled rat”
as §2, with “[1-3H-ethanolamine]” for “[1-^3H-ethanolamine]”
as §3

SMILES | IC50 (Rat FAAH-1) | IC50 (FAAH)
N[C@@H](CNc1cc(-c2ccc(C(F)(F)F)c(Cl)c2)ncn1)c1ccccc1 [Example 1, (1R)—N^2-{6-[3-Chloro-4-(trifluoromethyl)phenyl]pyrimidin-4-yl}-1-phenylethane-1,2-diamine hydrochloride acid salt] | 60 nM | 50 nM
CC(C)(C)OC(=O)N[C@@H](CNc1cc(-c2ccc(C(F)(F)F)c(Cl)c2)ncn1)c1ccccc1 [Example 2, (1R)-{2-[6-(3-Chloro-4-trifluoromethyl-phenyl)-pyrimidin-4-ylamino]-1-phenyl-ethyl}-carbamic acid tert-butyl ester] | 8000 nM | 330 nM
N[C@H](CNc1cc(-c2ccc(C(F)(F)F)c(Cl)c2)ncn1)c1ccccc1 [Example 3, (1S)—N^2-{6-[3-Chloro-4-(trifluoromethyl)phenyl]pyrimidin-4-yl}-1-phenylethane-1,2-diamine hydrochloride acid salt] | 2400 nM | 1300 nM
N[C@@H](CNc1cc(-c2ccc(C(F)(F)F)c(F)c2)ncn1)c1ccccc1 [Example 4, (1R)—N^2-{6-[3-Fluoro-4-(trifluoromethyl)phenyl]pyrimidin-4-yl}-1-phenylethane-1,2-diamine hydrochloride acid salt] | 320 nM | 100 nM
N[C@@H](CNc1cc(-c2ccc(C(F)(F)F)cc2)ncn1)c1ccccc1 [Example 5, (1R)-1-Phenyl-N^2-{6-[4-(trifluoromethyl)phenyl]pyrimidin-4-yl}ethane-1,2-diamine hydrochloride acid salt] | 1000 nM | 130 nM
N[C@@H](CNc1cc(-c2ccc(OC(F)(F)F)cc2)ncn1)c1ccccc1 [Example 6, (1R)-1-Phenyl-N^2-{6-[4-(trifluoromethoxy)phenyl]pyrimidin-4-yl}ethane-1,2-diamine hydrochloride acid salt] | 880 nM | 82 nM
N[C@@H](CNc1cc(-c2ccc(OC(F)(F)F)c(Cl)c2)ncn1)c1ccccc1 [Example 7, (1R)—N^2-{6-[3-Chloro-4-(trifluoromethoxy)phenyl]pyrimidin-4-yl}-1-phenylethane-1,2-diamine hydrochloride acid salt] | 120 nM | 53 nM
N[C@@H](CNc1cc(-c2ccc(OC(F)(F)F)c(F)c2)ncn1)c1ccccc1 [Example 8, (1R)—N^2-{6-[3-Fluoro-4-(trifluoromethoxy)phenyl]pyrimidin-4-yl}-1-phenylethane-1,2-diamine hydrochloride acid salt] | 170 nM | 50 nM
Cc1ccc2sc(-c3cc(NC[C@H](N)c4ccccc4)ncn3)cc2c1 [Example 9, (1R)—N^2-[6-(5-Methyl-1-benzothiophen-2-yl)pyrimidin-4-yl]-1-phenylethane-1,2-diamine hydrochloride acid salt] | 320 nM | 20 nM
CCOc1ccc(-c2cc(NC[C@H](N)c3ccccc3)ncn2)cc1C(F)(F)F [Example 10, (1R)—N^2-{6-[4-Ethoxy-3-(trifluoromethyl)phenyl]pyrimidin-4-yl}-1-phenylethane-1,2-diamine hydrochloride acid salt] | 84 nM | 26 nM
N[C@@H](CNc1cc(-c2ccc(SC(F)(F)F)cc2)ncn1)c1ccccc1 [Example 11, (1R)-1-Phenyl-N^2-(6-{4-[(trifluoromethyl)sulfanyl]phenyl}pyrimidin-4-yl)ethane-1,2-diamine hydrochloride acid salt] | 170 nM | 19 nM
N[C@@H](CNc1cc(-c2cc(F)c(OC(F)F)c(F)c2)ncn1)c1ccccc1 [Example 12, (1R)—N^2-{6-[4-(Difluoromethoxy)-3,5-difluorophenyl]pyrimidin-4-yl}-1-phenylethane-1,2-diamine hydrochloride acid salt] | 100 nM | 12 nM
N[C@@H](CNc1cc(-c2ccc3c(C(F)(F)F)noc3c2)ncn1)c1ccccc1 [Example 13, (1R)-1-Phenyl-N^2-[6-(3-(trifluoromethyl)-benzo[d]isoxazol-6-yl)pyrimidin-4-yl]-ethane-1,2-diamine hydrochloride acid salt] | 71 nM | 44 nM
N[C@@H](CNc1cc(-c2ccc(Cl)cc2)ncn1)c1ccccc1 [Example 14, (1R)—N^2-[6-(4-Chlorophenyl)pyrimidin-4-yl]-1-phenylethane-1,2-diamine hydrochloride acid salt] | > 10000 nM | 1000 nM
N[C@@H](CNc1cc(-c2cccc(Cl)c2)ncn1)c1ccccc1 [Example 15, (1R)—N^2-[6-(3-Chlorophenyl)pyrimidin-4-yl]-1-phenylethane-1,2-diamine hydrochloride acid salt] |  | 1000 nM
